Assay results reported in US20070203215A1, “Methods & Compositions For Enhancing Pharmaceutical Treatments” (Taiji Biomedical, Inc., priority 1999, published 2007).

Tests used:
[1] = mouse, in vivo
Method: Non-tumor bearing athymic mice were treated with the compound of Formula 2 and (or) paclitaxel as described.

MDA/LCC6^MDR1 tumors = assay: In vivo antitumor efficacy, orthotopic MDA/LCC6^MDR1 tumors; design: species or system SCID/RAG2 mice
Method: Anti-tumor efficacy experiments with orthotopic MDA/LCC6 and MDA/LCC6^MDR1 tumors were conducted in female SCID/RAG2 mice. Ascites propagated cells (2×10^6 in 50 μl) were injected into mammary fat pads bilaterally on day 0 before randomization into groups of 5 mice per group. Paclitaxel (12 mg/kg/dose) was administered QD i.v. (tail vein) in 200 μl saline/Cremophor/ethanol (8/1/1 by volume) on days 5, 12, 19, and 26. The compound of Formula 2-free base (30 mg/kg/dose) was administered BID p.o. by gavage in 100 μl PEG 400/Tween 20 (9/1 by volume) on days 4-6, 11-13, 18-20, and 25-27. Mean body weights were recorded at least every other day. Tumor weight was monitored approximately every other day by caliper measurements and calculated according to the formula (Tumor weight =(length×width^2)÷2). This conversion formula was verified by comparing the calculation derived tumor weights to excised and weighed tumors. Animals bearing ulcerated tumors or where tumor weight exceeded 10% of the animal's body weight were terminated. The weights of the bilateral tumors were averaged for each mouse and mean tumor weights for each treatment group±standard error of the mean were calculated. Statistical analysis was carried out by Mann-Whitney test using GraphPad Prism software (San Diego, Calif.).
The compound of Formula 2 was administered the afternoon before, 2 hours before and 6 hours after each paclitaxel dose. The ability of orally administered Formula 2 compound to reverse MDR in solid tumors in vivo was assessed with the MDA/LCC6^MDR1 model. Because the compound of Formula 2 produced no effect on paditaxel blood levels, focus on up-front therapy (for naive animals) or minimal residual disease models was maintained, as opposed to established tumors. MDA/LCC6^MDR1 cells that express P-gp were resistant to paclitaxel treatment in vitro and this resistance was reversed by the compound of Formula 2 (FIG. 1). […] Similar results were obtained in three independent experiments with two different strains of immunocompromised mice (SCID/RAG-2 and athymic). […]

MDA/LCC6 cells = assay: Effect on paclitaxel IC50 in non-P-gp-expressing cells; format: cell-based, human; conditions: breast carcinoma cells that do not express P-gp, FIG. 1
Method: The compound of Formula 2 was able to reverse resistance to all classes of P-gp substrates in a wide variety of tumor cell types with EC50s in the low nM range (Table 2). Similar results were obtained with etoposide in several models. Complete reversal of MDR was typically seen with Formula 2 doses between 0.25 and 1.0 μM. Examples with cells expressing extremely high levels of P-gp as a result of drug selection (CEM/VLB1000), moderate levels of P-gp from gene transduction (MDA/LCC6 ^MDR1), and low (intrinsic) levels of P-gp (HCT-15) are illustrated in Table 2. The compound of Formula 2 had no effect on doxorubicin or paclitaxel IC50s in non-P-gp-expressing CCRF-CEM and MDA/LCC6 cells, respectively (FIG. 1, for MDA/LCC6 cells).
Cell proliferation IC50s and MDR reversal EC50s were determined from 3-day dose-response curves carried out in triplicate in 96-well plates essentially as described by Monks et al. (J. Natl. Cancer Inst., 83:757-66, 1991). Cells were plated in standard growth medium at 2.5 or 5.0×10^4 per well (CCRF-CEM and CEM/VLB1000 respectively) or 5×10^3 per well (all other cell lines) in a final volume of 100 μl. After a 2 h incubation for non-adherent cells and overnight incubation for adherent cells, the initial cell density was determined by fluorescence readout of Alamar Blue metabolism. […] Final cell density was determined with Alamar Blue. […]

CEM = assay: Cell proliferation assay; format: cell-based; conditions: Homo sapiens, CCRF-CEM; Lymphoma CEM, P-gp Neg; read-out: Formula 2 compound IC50 (inhibition of growth)
Method: (§1) Cell proliferation IC50s and MDR reversal EC50s were determined from 3-day dose-response curves carried out in triplicate in 96-well plates essentially as described by Monks et al. (J. Natl. Cancer Inst., 83:757-66, 1991). Cells were plated in standard growth medium at 2.5 or 5.0×10^4 per well (CCRF-CEM and CEM/VLB1000 respectively) or 5×10^3 per well (all other cell lines) in a final volume of 100 μl. After a 2 h incubation for non-adherent cells and overnight incubation for adherent cells, the initial cell density was determined by fluorescence readout of Alamar Blue metabolism. The compound of Formula 2, cytotoxic agents, or compound vehicles were added to duplicate plates and the incubation was continued for an additional 72 h. Final cell density was determined with Alamar Blue. In some experiments, a standard endpoint assay was used without analysis of initial cell density with Alamar Blue. Similar results were obtained with the two assays. EC50s were derived by nonlinear regression analysis assuming a sigmoidal dose-response using GraphPad Prism Software (San Diego, Calif.). Proliferation assays capable of measuring both cytostatic and cytotoxic responses were carried out as described herein with 15 non-transformed and transformed cell lines, including primary fibroblasts, non-transformed smooth muscle, leukemia, breast, colon, ovarian and uterine carcinoma cells (±P-gp expression). Although the compound of Formula 2 reversed P-gp-mediated MDR in the low nanomolar concentration range, the compound was non-cytotoxic by itself at doses up to 100 μM in all cell lines. […] IC50s for non-specific cytotoxicity were similar in matched cell lines plus and minus P-gp expression. […] If it were, some consistent degree of resistance would be expected in P-gp expressing cells.

HISM = assay: Cell proliferation assay; format: cell-based; conditions: Homo sapiens; Smooth muscle HISM; read-out: Formula 2 compound IC50 (inhibition of growth)
Method: as §1

HT-29 = assay: Cell proliferation assay; format: cell-based; conditions: Homo sapiens; Colorectal carcinoma HT-29, P-gp Neg; read-out: Formula 2 compound IC50 (inhibition of growth)
Method: as §1

MCF-7/ADR = assay: Cell proliferation assay; format: cell-based; conditions: Homo sapiens, NCI/ADR-RES; Breast carcinoma MCF-7/ADR, P-gp Pos; read-out: Formula 2 compound IC50 (inhibition of growth)
Method: as §1

MCF-7 = assay: Cell proliferation assay; format: cell-based; conditions: Homo sapiens, MCF7; Breast carcinoma MCF-7, P-gp Neg; read-out: Formula 2 compound IC50 (inhibition of growth)
Method: as §1

MDA/LCC6 = assay: Cell proliferation assay; format: cell-based; conditions: Homo sapiens, LCC-6; Breast carcinoma MDA/LCC6, P-gp Neg; read-out: Formula 2 compound IC50 (inhibition of growth)
Method: as §1

P450 CYP3A4 = P450 CYP3A4 (Homo sapiens, UniProt P08684); assay: Metabolism by P450 CYP3A4; format: in vitro ADME
Source text: (§2) Two enzymes primarily responsible for metabolism of paclitaxel are P450 CYP3A4 and CYP2C8. Some P-gp inhibitors are also metabolized by P450 CYP 3A4, leading to inhibition of paclitaxel metabolism. This may contribute to PK interactions with paclitaxel.

CYP2C8 = CYP2C8 (Homo sapiens, UniProt P10632); assay: Metabolism by P450 CYP2C8; format: in vitro ADME
Source text: as §2

Chain of CYP2C8 (P10632 whole entry): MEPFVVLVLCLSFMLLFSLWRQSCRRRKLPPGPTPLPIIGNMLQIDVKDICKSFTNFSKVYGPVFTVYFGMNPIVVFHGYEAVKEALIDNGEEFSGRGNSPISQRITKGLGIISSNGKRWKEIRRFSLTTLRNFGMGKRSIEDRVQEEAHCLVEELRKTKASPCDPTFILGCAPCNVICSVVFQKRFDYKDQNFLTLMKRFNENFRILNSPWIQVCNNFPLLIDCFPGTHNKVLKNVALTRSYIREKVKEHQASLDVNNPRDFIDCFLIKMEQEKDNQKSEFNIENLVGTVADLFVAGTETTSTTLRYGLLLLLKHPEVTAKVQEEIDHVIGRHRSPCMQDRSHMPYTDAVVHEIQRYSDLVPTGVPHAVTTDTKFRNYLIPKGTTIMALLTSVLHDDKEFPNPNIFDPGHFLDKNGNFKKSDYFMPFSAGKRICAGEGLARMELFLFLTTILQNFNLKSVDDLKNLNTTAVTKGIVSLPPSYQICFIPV
Chain of P450 CYP3A4 (P08684 whole entry): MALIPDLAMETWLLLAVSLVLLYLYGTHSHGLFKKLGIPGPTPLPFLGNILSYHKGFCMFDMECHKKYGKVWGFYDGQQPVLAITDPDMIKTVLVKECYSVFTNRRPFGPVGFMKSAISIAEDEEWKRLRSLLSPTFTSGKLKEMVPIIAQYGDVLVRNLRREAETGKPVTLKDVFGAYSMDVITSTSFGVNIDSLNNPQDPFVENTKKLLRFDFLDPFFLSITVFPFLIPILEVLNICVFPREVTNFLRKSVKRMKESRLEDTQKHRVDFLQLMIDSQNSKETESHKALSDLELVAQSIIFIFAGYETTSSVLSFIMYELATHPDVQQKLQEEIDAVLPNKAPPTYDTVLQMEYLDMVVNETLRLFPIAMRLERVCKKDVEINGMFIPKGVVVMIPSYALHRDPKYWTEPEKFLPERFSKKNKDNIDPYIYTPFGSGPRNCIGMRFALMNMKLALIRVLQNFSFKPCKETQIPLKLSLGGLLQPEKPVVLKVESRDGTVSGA

Question: For `CCOC/C=C/c1ccc(-c2nc(-c3ccc(NC(C)C)cc3)c(-c3ccc(NC(C)C)cc3)[nH]2)cc1` [Formula 2 compound], which “Effect on paclitaxel toxicity” value [1] is on record?
Answer: The value was “decreased paclitaxel toxicity”.

Question: What about the “In vivo tumor growth” value (MDA/LCC6^MDR1 tumors; Formula 2 compound and paclitaxel combined, persisted at least two weeks after last paclitaxel dose) of the same compound?
Answer: Its value is “statistically significant inhibition of tumor growth”.

Question: And the “In vivo tumor growth compared to the vehicle control” value (MDA/LCC6^MDR1 tumors; single agent alone, paclitaxel 12 mg/kg i.v., Formula 2 free base 30 mg/kg p.o.)?
Answer: The value was “no significant effect”.

Question: And the “In vitro anti-tumor activity of paclitaxel” value (MDA/LCC6 cells)?
Answer: Its value is “did not enhance”.

Question: What about the IC50 (CEM) of the same compound?
Answer: Its IC50 is 38 µM.

Question: And the IC50 (HISM)?
Answer: The IC50 was greater than 100 µM.

Question: What about the IC50 (HT-29) of the same compound?
Answer: The IC50 was 12 µM.

Question: What about the IC50 (MCF-7/ADR) of the same compound?
Answer: Its IC50 is 68 µM.

Question: What about the IC50 (MCF-7) of the same compound?
Answer: The IC50 was 30 µM.

Question: And the IC50 (MDA/LCC6)?
Answer: Its IC50 is greater than 100 µM.

Question: What about the “Metabolism by P450 CYP3A4” value (P450 CYP3A4) of the same compound?
Answer: The value was “not metabolized”.

Question: What about the “Metabolism by P450 CYP2C8” value (CYP2C8) of the same compound?
Answer: Its value is “not metabolized”.
